According to the supplement of paper PMC11061612:

Legend:
Assay in all cases: combination Emax (second highest fraction inhibited in the dose matrix, 72 h); higher = more inhibition; extreme values may be limits of the assay
[1] = system: SK-N-DZ (Neuroblastoma)
Method in brief: (§1)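 Cell lines grown in DMEM/F12 or RPMI with 10% FBS were plated in 1536-well plates and held 24 hours at 37°C, 5% CO2 before 72 hours of exposure to two-drug dose matrices, with DMSO typically at 0.2%. CellTiter-Glo 2.0 luminescence gave viability, which was converted to inhibition. Vehicle wells were set to 0 and blank wells to 1. Combination Emax is the second-highest inhibition in the matrix, and Bliss excess is the observed combination effect minus the expected EA + EB − EA·EB, where EA and EB are the single-agent effects.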

[2] = system: C32 (Melanoma)
Method in brief: as §1

[3] = system: SK-MEL-24 (Melanoma)
Method in brief: as §1

[4] = system: NCI-H835 (Other Solid Carcinomas)
Method in brief: as §1

[5] = system: RPMI-8402 (T-Lymphoblastic Leukemia)
Method in brief: as §1

[6] = system: GRANTA-519 (B-Cell Non-Hodgkin's Lymphoma)
Method in brief: as §1

[7] = system: Daudi (Burkitt's Lymphoma)
Method in brief: as §1

[8] = system: BC-1 (B-Cell Non-Hodgkin's Lymphoma)
Method in brief: as §1

[9] = system: JJN-3 (Plasma Cell Myeloma)
Method in brief: as §1

[10] = system: SBC-3 (Small Cell Lung Carcinoma)
Method in brief: as §1

[11] = system: KNS-62 (Squamous Cell Lung Carcinoma)
Method in brief: as §1

[12] = system: A375 (Melanoma)
Method in brief: as §1

[13] = system: NCI-H1435 (Non-Small Cell Lung Carcinoma)
Method in brief: as §1

[14] = system: IGROV-1 (Ovarian Carcinoma)
Method in brief: as §1

[15] = system: CAL-85-1 (Breast Carcinoma)
Method in brief: as §1

[16] = system: HT-144 (Melanoma)
Method in brief: as §1

Row | Compound | combination Emax [1] | combination Emax [2] | combination Emax [3] | combination Emax [4] | combination Emax [5] | combination Emax [6] | combination Emax [7] | combination Emax [8] | combination Emax [9] | combination Emax [10] | combination Emax [11] | combination Emax [12] | combination Emax [13] | combination Emax [14] | combination Emax [15] | combination Emax [16]
1 | COc1nnc2ccc(N3CCC(c4ccc(OCCN5CCN(C)C(=O)[C@H]5C)cc4)CC3)nn12 [AZD5153] + C=CCn1c(=O)c2cnc(Nc3ccc(N4CCN(C)CC4)cc3)nc2n1-c1cccc(C(C)(C)O)n1 [AZD1775] (first compound max 1 µM, partner max 1 µM) | 0.987 | 0.354 | 0.604 | 0.582 | 1 | 0.874 | 0.753 | 0.979 | 0.873 | 0.767 | 0.542 | 0.637 | 0.24 | 0.838 | 0.598 | 0.651
2 | COc1nnc2ccc(N3CCC(c4ccc(OCCN5CCN(C)C(=O)[C@H]5C)cc4)CC3)nn12 [AZD5153] + CC1(C)CCC(CN2CCN(c3ccc(C(=O)NS(=O)(=O)c4ccc(NCC5CCOCC5)c([N+](=O)[O-])c4)c(Oc4cnc5[nH]ccc5c4)c3)CC2)=C(c2ccc(Cl)cc2)C1 [Venetoclax] (first compound max 1 µM, 7x7, partner max 1 µM) | 0.694 | 0.261 | 0.474 | 0.372 | 0.791 | 0.69 | 0.58 | 0.935 | 0.892 | 0.721 | 0.519 | 0.44 | 0.169 | 0.669 | 0.674 | 0.417
3 | COc1nnc2ccc(N3CCC(c4ccc(OCCN5CCN(C)C(=O)[C@H]5C)cc4)CC3)nn12 [AZD5153] + CCN(CCO)CCCOc1ccc2c(Nc3cc(CC(=O)Nc4cccc(F)c4)[nH]n3)ncnc2c1 [AZD2811] (first compound max 1 µM, 7x7, partner max 1 µM) | 0.8 | 0.38 | 0.528 | 0.384 | 0.999 | 0.56 | 0.677 | 0.943 | 0.876 | 0.781 | 0.596 | 0.562 | 0.339 | 0.618 | 0.657 | 0.48
4 | COc1nnc2ccc(N3CCC(c4ccc(OCCN5CCN(C)C(=O)[C@H]5C)cc4)CC3)nn12 [AZD5153] + C[C@@H]1COCCN1C2=NC(=NC(=C2)C3(CC3)[S@](=N)(=O)C)C4=C5C=CNC5=NC=C4 [AZD6738] (first compound max 1 µM, 7x7, partner max 10 µM) | 0.979 | 0.606 | 0.636 | 0.727 | 1 | 0.906 | 0.843 | 0.989 | 0.964 | 0.784 | 0.625 | 0.774 | 0.3 | 0.843 | 0.734 | 0.713
5 | COc1nnc2ccc(N3CCC(c4ccc(OCCN5CCN(C)C(=O)[C@H]5C)cc4)CC3)nn12 [AZD5153] + Cc1c2c(nn1C)CSCc1cc(n(C)n1)CSc1cc(c3ccccc3c1)OCCCc1c(C(=O)O)n(C)c3c-2c(Cl)ccc13 [AZD5991] (first compound max 1 µM, 7x7, partner max 1 µM) | 0.751 | 0.947 | 0.772 | 0.599 | 1 | 0.314 | 0.916 | 1 | 1 | 0.753 | 0.503 | 0.606 | 0.296 | 0.889 | 0.779 | 0.978
6 | COc1nnc2ccc(N3CCC(c4ccc(OCCN5CCN(C)C(=O)[C@H]5C)cc4)CC3)nn12 [AZD5153] + Cn1cnc2c(F)c(Nc3ccc(Br)cc3Cl)c(C(=O)NOCCO)cc21 [Selumetinib] (first compound max 1 µM, 7x7, partner max 10 µM) | 0.703 | 1 | 0.857 | 0.446 | 0.774 | 0.206 | 0.527 | 0.945 | 0.955 | 0.699 | 0.647 | 0.868 | 0.233 | 0.736 | 0.687 | 0.864
7 | NC1(C(=O)N[C@@H](CCO)c2ccc(Cl)cc2)CCN(c2ncnc3[nH]ccc23)CC1 [Capivasertib] + CC(=O)c1c(C)c2cnc(Nc3ccc(N4CCNCC4)cn3)nc2n(C2CCCC2)c1=O [Palbociclib] (first compound max 10 µM, 7x7, partner max 10 µM) | 0.618 | 0.413 | 0.654 | 0.426 | 0.947 | 0.227 | 0.491 | 0.928 | 0.298 | 0.67 | 0.599 | 0.368 | 0.244 | 0.86 | 0.203 | 0.809
8 | NC1(C(=O)N[C@@H](CCO)c2ccc(Cl)cc2)CCN(c2ncnc3[nH]ccc23)CC1 [Capivasertib] + CC(C)n1c(=O)n(C)c2cnc3cc(F)c(-c4ccc(OCCCN5CCCCC5)nc4)cc3c21 [AZD1390] (first compound max 10 µM, 7x7, partner max 0.3 µM) | 0.218 | 0.353 | 0.541 | 0.403 | 0.623 | 0.196 | 0.338 | 0.761 | 0.28 | 0.374 | 0.547 | 0.228 | 0.198 | 0.799 | 0.266 | 0.606
9 | NC1(C(=O)N[C@@H](CCO)c2ccc(Cl)cc2)CCN(c2ncnc3[nH]ccc23)CC1 [Capivasertib] + CCN(CCO)CCCOc1ccc2c(Nc3cc(CC(=O)Nc4cccc(F)c4)[nH]n3)ncnc2c1 [AZD2811] (first compound max 10 µM, 7x7, partner max 1 µM) | 0.619 | 0.54 | 0.626 | 0.535 | 0.939 | 0.597 | 0.806 | 0.872 | 0.376 | 0.622 | 0.561 | 0.421 | 0.248 | 0.76 | 0.203 | 0.764
10 | NC1(C(=O)N[C@@H](CCO)c2ccc(Cl)cc2)CCN(c2ncnc3[nH]ccc23)CC1 [Capivasertib] + COc1nnc2ccc(N3CCC(c4ccc(OCCN5CCN(C)C(=O)[C@H]5C)cc4)CC3)nn12 [AZD5153] (first compound max 10 µM, 7x7, partner max 1 µM) | 0.646 | 0.687 | 0.885 | 0.944 | 0.991 | 0.317 | 0.793 | 0.977 | 0.921 | 0.744 | 0.809 | 0.469 | 0.248 | 0.804 | 0.434 | 0.855
11 | NC1(C(=O)N[C@@H](CCO)c2ccc(Cl)cc2)CCN(c2ncnc3[nH]ccc23)CC1 [Capivasertib] + C[C@@H]1COCCN1C2=NC(=NC(=C2)C3(CC3)[S@](=N)(=O)C)C4=C5C=CNC5=NC=C4 [AZD6738] (first compound max 10 µM, 7x7, partner max 10 µM) | 0.983 | 0.631 | 0.688 | 0.456 | 0.997 | 0.892 | 0.709 | 0.94 | 0.603 | 0.69 | 0.738 | 0.723 | 0.26 | 0.865 | 0.47 | 0.88
12 | NC1(C(=O)N[C@@H](CCO)c2ccc(Cl)cc2)CCN(c2ncnc3[nH]ccc23)CC1 [Capivasertib] + Cn1cnc2c(F)c(Nc3ccc(Br)cc3Cl)c(C(=O)NOCCO)cc21 [Selumetinib] (first compound max 10 µM, 7x7, partner max 10 µM) | 0.405 | 1 | 0.856 | 0.41 | 0.633 | 0.205 | 0.212 | 0.829 | 0.358 | 0.346 | 0.914 | 0.832 | 0.244 | 0.882 | 0.411 | 0.985
13 | CS(=O)(=O)CCNCc1ccc(-c2ccc3ncnc(Nc4ccc(OCc5cccc(F)c5)c(Cl)c4)c3c2)o1 [Lapatinib] + C[C@@H](Oc1cc(-c2cnn(C3CCNCC3)c2)cnc1N)c1c(Cl)ccc(F)c1Cl [Crizotinib] (first compound max 10 µM, 7x7, partner max 10 µM) | 0.899 | 0.7 | 0.967 | 0.459 | 0.995 | 0.751 | 0.945 | 0.959 | 0.902 | 0.971 | 0.856 | 0.86 | 0.871 | 1 | 0.944 | 0.998
14 | CS(=O)(=O)CCNCc1ccc(-c2ccc3ncnc(Nc4ccc(OCc5cccc(F)c5)c(Cl)c4)c3c2)o1 [Lapatinib] + NC1(c2ccc(-c3nc4ccn5c(=O)[nH]nc5c4cc3-c3ccccc3)cc2)CCC1 [MK-2206] (first compound max 10 µM, 7x7, partner max 10 µM) |  | 0.635 | 0.949 | 0.868 | 1 |  |  | 0.957 | 0.899 | 0.917 | 0.721 | 0.89 | 0.665 |  | 0.9 | 
15 | CC1(C)CCC(CN2CCN(c3ccc(C(=O)NS(=O)(=O)c4ccc(NCC5CCOCC5)c([N+](=O)[O-])c4)c(Oc4cnc5[nH]ccc5c4)c3)CC2)=C(c2ccc(Cl)cc2)C1 [Venetoclax] + CS(=O)(=O)CCNCc1ccc(-c2ccc3ncnc(Nc4ccc(OCc5cccc(F)c5)c(Cl)c4)c3c2)o1 [Lapatinib] (first compound max 1 µM, 7x7, partner max 10 µM) |  | 0.209 | 0.683 | 0.294 | 0.839 |  |  | 0.904 |  | 0.183 | 0.186 | 0.169 | 0.195 |  | 0.657 | 
